Legend:
SNM1A = test system: SNM1A; parameters: method as in PMID 31380542; details: previous work; cited from earlier work
[1] = biological target: T1, recombinant SNM1A (698-1040) (Homo sapiens, UniProt Q6PJP8); assay: Gel-based SNM1A inhibition assay (digestion of fluorescent 21-mer oligonucleotide substrate, denaturing PAGE); type: biochemical; details: for Lowest Inhibitory Concentration: concentration gradient 1 mM to 1 µM, approximately 3-fold dilutions, 60 min at 37 °C; for Lowest Inhibitory Concentration / Inhibition of SNM1A (extent of digestion of substrate): SNM1A 2.5 nM, substrate 80 nM, 5 min preincubation; for Inhibition of SNM1A (extent of digestion of substrate): 1 mM compound, 60 min incubation (Figure 2c)
T1 construct: SNM1A (698-1040) was expressed and purified as described by Allerston et al; made in house
T1 sequence (Q6PJP8 698-1040): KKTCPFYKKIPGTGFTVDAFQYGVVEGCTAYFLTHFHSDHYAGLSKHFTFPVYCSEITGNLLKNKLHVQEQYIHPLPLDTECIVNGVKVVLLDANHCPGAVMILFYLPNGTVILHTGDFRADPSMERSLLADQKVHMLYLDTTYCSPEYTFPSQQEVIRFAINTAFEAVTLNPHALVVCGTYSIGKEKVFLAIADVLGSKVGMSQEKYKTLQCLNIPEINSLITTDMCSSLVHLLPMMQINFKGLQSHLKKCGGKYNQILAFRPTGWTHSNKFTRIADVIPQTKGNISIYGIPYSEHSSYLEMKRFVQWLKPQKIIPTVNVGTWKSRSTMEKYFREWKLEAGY
Description: The twelve modified nucleosides (Figure 2a) were evaluated as inhibitors of recombinant SNM1A to evaluate binding to the active site, using a previously reported gel-based assay with the same 21-mer oligonucleotide substrate. The nucleosides were incubated with SNM1A for 5 min prior to the addition of the fluorescently tagged 21-mer oligonucleotide substrate and further incubation for 1 h. In the event of the nucleoside binding to the active site, digestion of the substrate proceeds less efficiently (Figure 2b). SNM1A removes nucleotide monomers from the 5′-end, generating a shorter oligonucleotide that in turn is a substrate for SNM1A and can be digested further. The size of the oligonucleotide products, analysed by gel electrophoresis, therefore indicates how strongly a compound binds to the nuclease.
SNM1A (698-1040) was expressed and purified as described by Allerston et al..
SNM1A (698-1040) was stored as a 1.0 µM solution in reaction buffer (20 mM HEPES-KOH, pH 7.5, 50 mM KCl, 10 mM MgCl2, 0.05% Triton-X, 0.1 mg/mL BSA, 5% glycerol, 0.5 mM DTT). An oligonucleotide of the sequence 5′-TTAGCAGTCAGTCAGTCATCG-Cy3-3′ was phosphorylated using T4 PNK (New England Biolabs) and used as the substrate. Modified nucleosides were added to the assay in 40% DMSO solution (10 mM or as specified). Fluorescent oligonucleotides were protected from light during incubations and gel electrophoresis.
Modified nucleosides (10 nmol or as specified) were mixed with SNM1A (698–1040) (25 fmol) in reaction buffer containing 4% DMSO (10 µL) on ice and incubated at 37 °C for 5 min. Phosphorylated oligonucleotide (0.8 pmol) was added and the reaction was incubated at 37 °C for 60 min. The reaction was stopped by the addition of stop solution (2 µL, 95% formamide, 10 mM EDTA) followed by heating to 95 °C for 3 min. The products of the reaction were analysed using gel electrophoresis; 3 µL of each reaction was used.
Oligonucleotides were separated on a 15% acrylamide 6.5 M urea gel (2.9 g urea, 2.7 mL 40% acrylamide-bisacrylamide 25:1, 1.4 mL 5× TBE (0.45 M Tris, 0.45 M boric acid, 0.01 M EDTA pH 8.0), 0.6 mL H2O) in 1X TBE at 150 V for 90 min alongside bromophenol blue and xylene cyanol as markers for 8 and 28 nt, respectively, and imaged using Typhoon FLA 9500.
Figure 2 Evaluation of modified (di)nucleosides as inhibitors of SNM1A. (a) Structures of the twelve (di)nucleosides that were evaluated as inhibitors of SNM1A; (b) schematic representation of assay; (c) gel electrophoresis showing the extent of digestion of fluorescent 21-mer oligonucleotide substrate. SNM1A (2.5 nM) was pre-incubated with the modified (di)nucleosides (1 mM) for 5 min before the oligonucleotide substrate (80 nM) was added and a further 60 min incubation. nt = nucleotides.
Figure 3 Concentration dependence of 5′-C-linked malonate nucleoside 11. Digestion of the phosphorylated oligonucleotide (80 nM) after incubation with SNM1A (2.5 nM) and nucleoside 11 (1000–1 µM) or thymidine (T) (1 mM) for 60 min at 37 °C, analysed by denaturing PAGE. SNM1A was preincubated with the modified nucleoside for 5 min at 37 °C prior to the addition of the substrate. nt = nucleotides.

SMILES | Inhibition of SNM1A (SNM1A) | Lowest Inhibitory Concentration [1] | Inhibition of SNM1A (extent of digestion of substrate) [1] | Potency compared with previously reported compounds ([1]; various concentrations, Figure 5b)
Cc1cn([C@H]2C[C@H](O)[C@@H](C(=O)NO)O2)c(=O)[nH]c1=O [Compound 1] | inhibit SNM1A to varying degrees |  |  | 
Cc1cn([C@H]2C[C@H](O)[C@@H](CCC(=O)NO)O2)c(=O)[nH]c1=O [Compound 2] | inhibit SNM1A to varying degrees |  |  | 
COC(=O)C(C[C@H]1O[C@@H](n2cc(C)c(=O)[nH]c2=O)C[C@@H]1O)C(=O)O (stereo partly shown) [Compound 9, C-(5′-Deoxythymidin-5′-yl) monomethyl sodium malonate] |  | 333 µM |  | 
Cc1cn([C@H]2C[C@H](O)[C@@H](CC(C(=O)O)C(=O)O)O2)c(=O)[nH]c1=O [Compound 10, C-(5′-Deoxythymidin-5′-yl) disodium malonate] |  | 333 µM |  | 
Cc1cn([C@H]2C[C@H](O)[C@@H](CC(C(=O)O)C(=O)NO)O2)c(=O)[nH]c1=O (stereo partly shown) [Compound 11, C-(5′-deoxythymidin-5′-yl) sodium N-hydroxymalonamide] |  | 33 µM | most potent overall | slightly lower potency than compound 1
Cc1cn([C@H]2C[C@H](O)[C@@H](CNC(=O)CC(=O)NO)O2)c(=O)[nH]c1=O [Compound 15, N-(5′-Deoxythymidin-5′-yl) amido N-hydroxymalonamide] |  | 333 µM | binds SNM1A | 
COC(=O)CC(=O)NC1CC(n2cc(C)c(=O)[nH]c2=O)OC1CO (stereo not shown) [Compound 26, N-(3′-Deoxythymidin-3′-yl) amido methyl malonamide] |  |  | inactive | 
Cc1cn([C@H]2C[C@H](NC(=O)CC(=O)O)[C@@H](CO)O2)c(=O)[nH]c1=O [Compound 27, N-(3′-Deoxythymidin-3′-yl) amido sodium malonamide] |  | 333 µM |  | 
Cc1cn([C@H]2C[C@H](NC(=O)CC(=O)NO)[C@@H](CO)O2)c(=O)[nH]c1=O [Compound 28, N-(3′-Deoxythymidin-3′-yl) amido N-hydroxymalonamide] |  | 333 µM |  | 
COC(=O)C(CC1OC(n2cc(C)c(=O)[nH]c2=O)CC1O)C(=O)NC1CC(n2cc(C)c(=O)[nH]c2=O)OC1CO (stereo not shown) [Compound 34, N-(3′-Deoxythymidin-3′-yl)-C-(5′-deoxythymidin-5′-yl) amido methyl malonate] |  | 1000 µM | some inhibition | 
Cc1cn(C2CC(O)C(CC(C(=O)O)C(=O)NC3CC(n4cc(C)c(=O)[nH]c4=O)OC3CO)O2)c(=O)[nH]c1=O (stereo not shown) [Compound 35, N-(3′-Deoxythymidin-3′-yl)-C-(5′-deoxythymidin-5′-yl) amido sodium malonate] |  | 333 µM | approximately equal potency | 
Cc1cn(C2CC(O)C(CC(C(=O)NO)C(=O)NC3CC(n4cc(C)c(=O)[nH]c4=O)OC3CO)O2)c(=O)[nH]c1=O (stereo not shown) [Compound 36, N-(3′-Deoxythymidin-3′-yl)-C-(5′-deoxythymidin-5′-yl) amido N-hydroxy malonamide] |  | 333 µM | approximately equal potency | 
Cc1cn([C@H]2C[C@H](O)[C@@H](CO)O2)c(=O)[nH]c1=O [Thymidine, reference compound] |  |  | no effect on the hydrolysis of the substrate | 
